Data: paper doi:10.1101/2022.03.24.485529v3, “Distinct bile salt hydrolase substrate preferences dictate C. difficile pathogenesis” (biorxiv, 2022)

Experiments:
LingBSH = target: T1, LingBSH (Limosilactobacillus ingluviei, UniProt A0A0R1U3N2); test: deconjugation of AA-CA pool by LC-IMS-MS; type: biochemical; details: pool of CA conjugated to 22 amino acids
T1 construct: gene FC43_GL000624; heterologously expressed and purified; homotetramer; species inferred from the abbreviation Ling
T1 sequence (A0A0R1U3N2 2-327): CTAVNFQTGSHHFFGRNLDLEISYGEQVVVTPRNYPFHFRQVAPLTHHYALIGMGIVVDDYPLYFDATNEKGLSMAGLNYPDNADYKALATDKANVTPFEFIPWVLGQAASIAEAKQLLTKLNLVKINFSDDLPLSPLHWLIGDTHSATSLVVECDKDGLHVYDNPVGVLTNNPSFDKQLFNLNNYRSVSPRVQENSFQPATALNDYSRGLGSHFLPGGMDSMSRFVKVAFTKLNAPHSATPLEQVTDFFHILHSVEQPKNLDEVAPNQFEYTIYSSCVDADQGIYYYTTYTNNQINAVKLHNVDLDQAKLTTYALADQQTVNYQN

LgasBSHa = target: T2, LgasBSHa (Lactobacillus gasseri, UniProt A0A805Z5R7); test: X-ray crystallography; type: binding; details: active site
T2 construct: gene bsh; heterologously expressed and purified; homotetramer, neighbouring monomer donates loop to active site
T2 sequence (A0A805Z5R7 2-316): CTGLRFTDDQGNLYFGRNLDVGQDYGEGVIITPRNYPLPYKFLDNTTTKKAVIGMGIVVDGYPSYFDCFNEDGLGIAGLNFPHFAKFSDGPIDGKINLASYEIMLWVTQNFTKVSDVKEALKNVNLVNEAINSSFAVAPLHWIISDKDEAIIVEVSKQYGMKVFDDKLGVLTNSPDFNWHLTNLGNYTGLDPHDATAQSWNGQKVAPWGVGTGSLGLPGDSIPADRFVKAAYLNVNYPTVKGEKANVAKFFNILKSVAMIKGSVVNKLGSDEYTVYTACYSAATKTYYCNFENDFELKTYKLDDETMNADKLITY

In the case of `C[C@H](NC(=O)CC[C@@H](C)[C@H]1CC[C@H]2[C@@H]3[C@H](O)C[C@@H]4C[C@H](O)CC[C@]4(C)[C@H]3C[C@H](O)[C@]12C)C(=O)O` [Ala-CA], the “% deconjugation after 5 minutes” value (LingBSH; also purified Ala-CA (enzyme not named in that sentence)) is reported as “Ala and Ser-conjugated BAs are efficiently processed”.

`C[C@H](CCC(=O)O)[C@H]1CC[C@H]2[C@@H]3[C@H](O)C[C@@H]4C[C@H](O)CC[C@]4(C)[C@H]3CC[C@]12C` [CDCA] was tested, and the X-ray crystallography (LgasBSHa; ternary complex with taurine) was “LgasBSHa was resolved in complexes with taurine or taurine plus CDCA”.

`C[C@H](CCC(=O)N[C@@H](CO)C(=O)O)[C@H]1CC[C@H]2[C@@H]3[C@H](O)C[C@@H]4C[C@H](O)CC[C@]4(C)[C@H]3C[C@H](O)[C@]12C` [Ser-CA] was tested, and the “% deconjugation after 5 minutes” value (LingBSH; also purified Ser-CA (enzyme not named in that sentence)) was “Ala and Ser-conjugated BAs are efficiently processed”.

In the case of `NCCS(=O)(=O)O` [taurine], the X-ray crystallography (LgasBSHa; complexes with taurine alone and with taurine plus CDCA) is reported as “LgasBSHa was resolved in complexes with taurine or taurine plus CDCA”.
